{"source": "patent US20220306603A1", "about": "“TARGETING DNA REPAIR IN TUMOR CELLS VIA INHIBITION OF ERCC1-XPF” (The Governors of the University of Alberta, priority 2019, published 2022)", "key": {"ERCC1-XPF complex": {"biological_target": "T1, ERCC1-XPF complex (Homo sapiens, UniProt Q92889)", "T1 construct": "His6; made in house; host or cells: E. coli BL21 (DE3)", "T1 sequence (Q92889 1-916)": "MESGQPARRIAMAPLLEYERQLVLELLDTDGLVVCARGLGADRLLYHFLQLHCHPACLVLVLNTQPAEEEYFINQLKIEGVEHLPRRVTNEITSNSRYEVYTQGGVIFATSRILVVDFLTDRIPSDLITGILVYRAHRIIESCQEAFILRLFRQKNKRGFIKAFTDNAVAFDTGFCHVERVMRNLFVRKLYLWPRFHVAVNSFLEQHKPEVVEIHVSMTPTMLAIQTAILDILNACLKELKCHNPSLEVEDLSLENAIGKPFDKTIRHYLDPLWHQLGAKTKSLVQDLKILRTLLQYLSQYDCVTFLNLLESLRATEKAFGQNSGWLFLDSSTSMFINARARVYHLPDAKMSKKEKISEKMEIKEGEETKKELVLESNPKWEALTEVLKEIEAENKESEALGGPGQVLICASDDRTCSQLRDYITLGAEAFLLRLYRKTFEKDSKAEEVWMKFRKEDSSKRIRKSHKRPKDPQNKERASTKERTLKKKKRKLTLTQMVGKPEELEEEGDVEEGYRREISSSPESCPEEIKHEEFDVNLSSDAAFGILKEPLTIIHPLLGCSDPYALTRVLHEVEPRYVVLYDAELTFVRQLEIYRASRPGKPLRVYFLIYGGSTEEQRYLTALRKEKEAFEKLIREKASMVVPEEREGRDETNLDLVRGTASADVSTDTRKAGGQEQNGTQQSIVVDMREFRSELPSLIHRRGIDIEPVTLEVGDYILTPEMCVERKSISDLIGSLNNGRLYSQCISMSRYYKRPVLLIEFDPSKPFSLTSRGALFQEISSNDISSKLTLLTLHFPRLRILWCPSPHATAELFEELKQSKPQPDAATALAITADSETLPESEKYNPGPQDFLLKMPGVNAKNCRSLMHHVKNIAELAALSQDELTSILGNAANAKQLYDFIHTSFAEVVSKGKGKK", "experiment": "Steady-state intrinsic tryptophan fluorescence quenching binding assay", "conditions": "2 μM compound; excitation 295 nm", "procedure": "Steady-state fluorescence spectra were measured at room temperature on a Perkin-Elmer LS-55 spectrofluorometer (Freemont, Calif.) with 5 nm spectral resolution for excitation and emission using 30-80 nM solution of purified recombinant ERCC1-XPF protein complex. […] In studying the effects of inhibitors on protein fluorescence intensities, additions to protein samples were made from inhibitors stock solutions, keeping the protein dilution below 3%."}, "HCT116 cells": {"system": "HCT116 cells", "experiment": "Clonogenic survival assay, UV treatment", "assay_type": "cell-based, human", "conditions": "254 nm UV 0-10 J/m^2; compound 0.5-4 μM", "procedure": "UV treatment: HCT116 cells (100-800 cells depending on the UV dose) were plated in triplicate in 60-mm petri dishes. The cells were incubated overnight at 37° C. in a humidified atmosphere containing 5% CO2 to allow for cell attachment. […] Medium was removed again, and cells were exposed to increasing doses (0-10 J/m^2) of UV-C radiation and then incubated for a further 10 days in the presence of inhibitor at 37° C. in a 5% CO2 atmosphere to allow for colony formation. After this period plates were stained with crystal violet and colonies were counted using a Colcount instrument (Oxford Optronix, Abingdon UK). Finally, plating efficiency and surviving fraction were calculated."}, "[1]": {"biological_target": "T2, truncated ERCC1 (dERCC1) and XPF (dXPF) dimer (Homo sapiens, UniProt Q92889)", "T2 construct": "XPF (dXPF, codons 667-916); made in house", "T2 sequence (Q92889 667-916)": "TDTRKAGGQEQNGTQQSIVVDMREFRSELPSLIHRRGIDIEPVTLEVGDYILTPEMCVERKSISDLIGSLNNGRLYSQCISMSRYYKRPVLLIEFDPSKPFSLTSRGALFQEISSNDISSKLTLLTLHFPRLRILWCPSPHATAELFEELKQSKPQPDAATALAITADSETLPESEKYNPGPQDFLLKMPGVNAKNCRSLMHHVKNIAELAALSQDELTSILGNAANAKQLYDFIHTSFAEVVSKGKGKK", "experiment": "Micro Scale Thermophoresis of truncated ERCC1-XPF", "assay_type": "binding", "conditions": "truncated dimer compared to individual peptides", "excerpt": "MST allows for the detection of interactions and changes in the molecular properties of biomolecules at low nanomolar concentrations. We synthesized two human recombinant truncated forms of ERCC1 (dERCC1, codons 96-297) and XPF (dXPF, codons 667-916) for this study because these peptides contain the subunit interaction domains that the inhibitor was designed to disrupt."}, "[2]": {"experiment": "ADME screening: solubility", "assay_type": "physicochemical", "conditions": "Table 8"}, "serum proteins": {"system": "serum proteins", "experiment": "ADME screening: serum protein binding", "assay_type": "in vitro ADME", "conditions": "Table 8"}, "ADME screening: LogD": {"experiment": "ADME screening: LogD", "conditions": "Table 8"}, "CYP1A2": {"biological_target": "T3, CYP1A2 (Homo sapiens, UniProt P05177)", "T3 sequence (P05177 1-516)": "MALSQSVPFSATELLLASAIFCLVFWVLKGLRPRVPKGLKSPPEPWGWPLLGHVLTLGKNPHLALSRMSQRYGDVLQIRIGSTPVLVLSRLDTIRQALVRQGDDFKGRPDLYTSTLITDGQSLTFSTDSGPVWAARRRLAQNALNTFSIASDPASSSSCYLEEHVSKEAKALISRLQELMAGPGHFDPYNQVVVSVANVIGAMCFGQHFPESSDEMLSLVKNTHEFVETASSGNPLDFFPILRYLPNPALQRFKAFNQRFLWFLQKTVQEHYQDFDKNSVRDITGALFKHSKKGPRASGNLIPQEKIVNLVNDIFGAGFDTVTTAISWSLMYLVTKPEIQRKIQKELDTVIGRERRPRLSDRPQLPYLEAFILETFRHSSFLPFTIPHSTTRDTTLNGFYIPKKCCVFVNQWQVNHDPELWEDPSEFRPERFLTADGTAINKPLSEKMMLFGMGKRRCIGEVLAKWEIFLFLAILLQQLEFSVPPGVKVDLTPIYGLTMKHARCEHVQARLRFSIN", "experiment": "CYP450 inhibition, CYP1A2"}, "CYP2D6": {"biological_target": "CYP2D6 (Homo sapiens, UniProt P10635)", "sequence (P10635 whole entry)": "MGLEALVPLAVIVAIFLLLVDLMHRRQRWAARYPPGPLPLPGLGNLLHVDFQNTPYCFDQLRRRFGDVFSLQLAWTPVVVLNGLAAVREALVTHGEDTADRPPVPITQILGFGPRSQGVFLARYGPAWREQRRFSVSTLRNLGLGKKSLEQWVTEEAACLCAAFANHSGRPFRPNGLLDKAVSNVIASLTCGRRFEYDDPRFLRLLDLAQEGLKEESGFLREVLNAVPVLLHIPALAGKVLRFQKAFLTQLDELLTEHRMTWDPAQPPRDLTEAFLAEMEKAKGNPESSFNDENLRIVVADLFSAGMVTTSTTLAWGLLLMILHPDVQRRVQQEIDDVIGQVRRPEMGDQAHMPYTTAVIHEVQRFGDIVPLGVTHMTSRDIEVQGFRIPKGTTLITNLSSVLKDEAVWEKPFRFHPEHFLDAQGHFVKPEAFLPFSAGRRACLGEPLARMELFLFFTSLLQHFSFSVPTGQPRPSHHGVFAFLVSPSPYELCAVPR", "experiment": "CYP450 inhibition, CYP2D6"}, "[3]": {"experiment": "ADME screening: cell permeability and efflux ratio", "conditions": "Table 8"}}}
{"smiles": "COc1ccc2nc3cc(Cl)ccc3c(Nc3ccc(O)c(CN4CCN(CCN(C)C)CC4)c3)c2c1", "note": "[Compound A4, 4-((6-Chloro-2-methoxyacridin-9-yl)amino)-2-((4-(2-(dimethylamino)ethyl)piperazin-1-yl)methyl) phenol]", "values": [{"measurement": "quenching of protein fluorescence at 330 nm", "setting": "ERCC1-XPF complex", "value": "~23±2", "unit": "%"}, {"measurement": "sensitisation to UV radiation, clonogenic survival (in words)", "setting": "HCT116 cells", "value": "significantly reduced survival"}, {"measurement": "change in thermophoresis properties (in words)", "setting": "[1]", "value": "induced a larger change in the thermophoresis properties of the truncated dimer"}, {"measurement": "Solubility (in words)", "setting": "[2]", "value": "Poor"}, {"measurement": "Serum protein binding (% bound)", "setting": "serum proteins", "value": "(99.9) % bound"}, {"measurement": "Serum protein binding (in words)", "setting": "serum proteins", "value": "Strong"}, {"measurement": "LogD (rating)", "setting": "ADME screening: LogD", "value": "Good"}, {"measurement": "logD", "setting": "ADME screening: LogD", "value": 2.86}, {"measurement": "IC50", "setting": "CYP1A2", "value": 6.4, "unit": "µM"}, {"measurement": "inhibition of CYP2D6 (in words)", "setting": "CYP2D6", "value": "weak inhibitor"}, {"measurement": "Cell permeability (Mean recovery %) (in words)", "setting": "[3]", "value": "Low"}]}
